# Test results taken from US7713969B2, “Compositions and methods for treatment of cancer” (ArQule, Inc., priority 2005, dated 2010).
# Assays:
# [1] = system: Recombinant Protein Kinase C; test: Protein Kinase C kinase reaction, Histone H1, autoradiography (Example 79); format: biochemical; details: 0.05, 0.5, or 10 μM, 15 minutes at room temperature
# Protocol: Recombinant Protein Kinase C (Calbiochem) (100 ng) was incubated with (±)-cis-3-(5,6-dihydro-4H-pyrrolo[3,2,1-ij]quinolin-1yl)-4(1H-indol-3-yl)pyrrolidine-2,5-dione or (±)-trans-3-(5,6-dihydro-4H-pyrrolo[3,2,1-ij]quinolin-1-yl)-4(1H-indol-3-yl)pyrrolidine-2,5-dione at 0.05, 0.5, or 10 μM for 15 minutes at room temperature. Subsequently, a radioactive labeling mix in kinase buffer (20 mM Tris-HCl pH 7.5, 10 mM MgCl2) containing 20 μM ATP, 0.2 μCi/μl γ^32P-ATP, 0.2 μg/μl Histone H1 (Upstate) was added to each sample. The kinase reaction was carried out for 5 minutes at room temperature. Reaction products were analyzed by 12% SDS-PAGE and autoradiography.
# [2] = system: H441; test: Colony formation assay (CFA); format: cell-based; details: Homo sapiens, NCI-H441; H441, 24 hours exposure, colonies after 14-21 days; read-out: (−)-trans IC50 CFA
# Protocol: (§1) To determine c-met inhibition, exponentially growing MCF-7 and MDA-MB-231 human breast cancer cells, DLD1 and HT29 human colon cancer cells, PACA2 and PANC-1 human pancreatic cancer cells and NCI-H441 human non-small cell lung cancer cells (H441) were serum starved in 0.5% FBS and treated with increasing amounts of (−)-trans-3-(5,6-dihydro-4H-pyrrolo [3,2,1-ij]quinolin-1-yl)-4(1H-indol-3-yl)pyrrolidine-2,5-dione for 24 hours as indicated. Cells were then left unstimulated or stimulated with 100 ng/mL HGF for 10 minutes and whole cell extracts were prepared. Whole cell lysates (50 μg) were resolved by SDS-PAGE, transferred onto a PVDF membrane, and an enhanced chemiluminescence assay system (ECL) was used to determine the phosphorylation status of c-Met. A polyclonal antibody against phospho (Y1349) c-Met (phospho-c-Met) was obtained from Biosource International and a monoclonal antibody against β-actin was purchased from Invitrogen. Percent inhibition was determined by densitometry using the Scion Image For colony formation assays (CFA), exponentially growing cells were seeded at 2,000 cells per well in 6-well plates and allowed to attach for 24 hours. Increasing concentrations of (−)-trans-3-(5,6-dihydro-4H-pyrrolo[3,2,1-ij]quinolin-1-yl)-4(1H-indol-3-yl)pyrrolidine-2,5-dione (from 0.01 to 30 μM) were then added to the media for another 24 hours. After 24 hours exposure, the drug was removed and fresh media was added for the next 14-21 days, allowing for colony formation. Cells were fixed and stained with GEMSA (Gibco BRL). Colonies of greater than 50 cells were scored as survivors and percentage of cell survival was plotted to determine the IC50. […] The IC50 of (−)-trans-3-(5,6-dihydro-4H-pyrrolo[3,2,1-ij]quinolin-1-yl)-4(1H-indol-3-yl) pyrrolidine-2,5-dione for c-Met expressing solid tumor types is in the 0.1-0.7 μM range following exposure to (−)-trans-3-(5,6-dihydro-4H-pyrrolo[3,2,1-ij]quinolin-1-yl)-4(1H-indol-3-yl)pyrrolidine-2,5-dione for 24 hours, as determined by colony formation assay (CFA).
# [3] = system: MDA-MB-231; test: Colony formation assay (CFA); format: cell-based; details: Homo sapiens; MDA-MB-231, 24 hours exposure, colonies after 14-21 days; read-out: (−)-trans IC50 CFA
# Protocol: as §1
# [4] = system: DLD-1; test: Colony formation assay (CFA); format: cell-based; details: Homo sapiens; DLD-1, 24 hours exposure, colonies after 14-21 days; read-out: (−)-trans IC50 CFA
# Protocol: as §1
# [5] = system: H446; test: Colony formation assay (CFA); format: cell-based; details: Homo sapiens, NCI-H446; H446, 24 hours exposure, colonies after 14-21 days; read-out: (−)-trans IC50 CFA
# Protocol: as §1
# [6] = system: H661; test: Colony formation assay (CFA); format: cell-based; details: Homo sapiens, NCI-H661; H661, 24 hours exposure, colonies after 14-21 days; read-out: (−)-trans IC50 CFA
# Protocol: as §1
# [7] = system: MCF-7; test: Colony formation assay (CFA); format: cell-based; details: Homo sapiens, MCF7; MCF-7, 24 hours exposure, colonies after 14-21 days; read-out: (−)-trans IC50 CFA
# Protocol: as §1
# [8] = system: PACA2; test: Colony formation assay (CFA); format: cell-based; details: Homo sapiens, PaCa-2; PACA2, 24 hours exposure, colonies after 14-21 days; read-out: (−)-trans IC50 CFA
# Protocol: as §1
# [9] = system: HT-29; test: Colony formation assay (CFA); format: cell-based; details: Homo sapiens; HT-29, 24 hours exposure, colonies after 14-21 days; read-out: (−)-trans IC50 CFA
# Protocol: as §1
# [10] = system: PANC-1; test: Colony formation assay (CFA); format: cell-based; details: Homo sapiens; PANC-1, 24 hours exposure, colonies after 14-21 days; read-out: (−)-trans IC50 CFA
# Protocol: as §1
SMILES,Protein Kinase C kinase activity in comparison to carrier alone [1],IC50 [2],IC50 [3],IC50 [4],IC50 [5],IC50 [6],IC50 [7],IC50 [8],IC50 [9],IC50 [10]
"O=C1NC(=O)[C@@H](c2cn3c4c(cccc24)CCC3)[C@@H]1c1c[nH]c2ccccc12 (racemic) [(±)-Trans-3-(5,6-dihydro-4H-pyrrolo[3,2,1-ij]quinolin-1-yl)-4(1H-indol-3-yl)pyrrolidine-2,5-dione]",did not reduce kinase activity,–,–,–,–,–,–,–,–,–
"O=C1NC(=O)C(c2cn3c4c(cccc24)CCC3)C1c1c[nH]c2ccccc12 (single isomer, unassigned; (-))",–,200 nM,300 nM,700 nM,4000 nM,5000 nM,400 nM,300 nM,200 nM,500 nM
